{"source": "patent US11111217B2", "about": "“2-arylbenzimidazoles as Ppargc1a activators for treating neurodegenerative diseases” (The Board of Trustees of the Leland Stanford Junior …, priority 2018, dated 2021)", "data": [{"tested_on": "TNF-α production by BV2 cells or PBMC", "assay": "Cellular assay to measure TNF-α inhibition (LPS-stimulated, ELISA)", "assay_type": "cell-based, murine (BV2) or human (PBMC)", "details": "BV2 cells or PBMC (not specified), LPS 100 ng/ml over 24 hours, relative to DMSO vehicle; compound concentration not stated", "from_the_text": "Oxidative metabolism exerts an anti-inflammatory effect on myeloid cell phenotype (O'Neill L A, Front Immunol. 2014) and Ppargc1a can promote this energy metabolic pathway (Spiegelman BM, Novartis Found Symp. 2007). Thus, pharmacological activation of Ppargc1a would be expected to inhibit the inflammatory response of myeloid cells. This phenomenon can be measured in cultures by a TNF-α inhibition assay.\nCellular Assay Protocol to Measure TNF-α Inhibition\nThe murine myeloid cell line BV2 or human peripheral blood mononuclear cells (PBMC) are cultured in RPMI 1640 media (Cat #11875119, Gibco) supplemented with 10% fetal bovine serum and 1% L-glutamine 1% penicillin. These cells are then stimulated with 100 ng/ml of lipopolysaccharide (LPS, O111:B34, Cat # L2630, Sigma) over 24 hours. LPS stimulation results in the secretion of the inflammatory cytokine TNF-α by BV2 cells or PBMC, which can be quantified by ELISA in culture supernatant samples per manufacturer's protocol (Cat #558273 for BV2 and Cat #558299 for PBMC, BD Biosciences). To determine whether exampl compounds 1-78 inhibit TNF-α production by BV2 cells or PBMC, the cells were cultured in the presence of the compounds at different concentrations, and fold reduction in TNF-α production relative to TNF-α production by the same cells cultured in the presence of dimethylsulfoxide (as vehicle control) was determined.", "values": [{"smiles": "c1ccc(-c2nc3ccccc3[nH]2)cc1", "note": "[Example 14, 2-(Phenyl)-1H-benzo[d]imidazole]", "TNF α Inhibition": "C (C = <50% inh.)"}, {"smiles": "CC(C)(C)c1cc(-c2nc3ccccc3[nH]2)cc(C(C)(C)C)c1", "note": "[Example 53, 2-(3,5-di-tert-Butylphenyl)-1H-benzo[d]imidazole]", "TNF α Inhibition": "C (C = <50% inh.)"}, {"smiles": "CC(C)(C)c1ccc(-c2nc3ccccc3o2)cc1", "note": "[Example 4, 2-(4-tert-Butylphenyl)-1,3-benzoxazole]", "TNF α Inhibition": "B (B = 50-80% inh.)"}, {"smiles": "Cn1c(-c2ccc(C(C)(C)C)cc2)nc2ccccc21", "note": "[Example 6, 2-(4-tert-Butylphenyl)-1-methyl-benzo[d]imidazole]", "TNF α Inhibition": "B (B = 50-80% inh.)"}, {"smiles": "CC(C)Oc1ccc(-c2nc3ccccc3[nH]2)cc1", "note": "[Example 69, 2-(4-Isopropoxyphenyl)-1H-benzo[d]imidazole]", "TNF α Inhibition": "A (A = >80% inh.)"}, {"smiles": "CC(C)(C)c1ccc(-c2nc3c(Br)cccc3[nH]2)cc1", "note": "[Example 54, 2-(4-tert-Butylphenyl)-4-bromo-1H-benzo[d]imidazole]", "TNF α Inhibition": "A (A = >80% inh.)"}, {"smiles": "FC(F)(F)c1cccc(-c2nc3ccccc3[nH]2)c1", "note": "[Example 39, 2-(3-Trifluoromethylphenyl)-1H-benzo[d]imidazole]", "TNF α Inhibition": "B (B = 50-80% inh.)"}, {"smiles": "Cc1cccc(-c2nc3ccccc3[nH]2)c1", "note": "[Example 9, 2-(3-Methylphenyl)-1H-benzo[d]imidazole]", "TNF α Inhibition": "C (C = <50% inh.)"}, {"smiles": "CC(C)(C)c1ccc(-c2nc3c(O)cccc3[nH]2)cc1", "note": "[Example 50, 2-(4-tert-Butylphenyl)-1H-benzo[d]imidazol-4-ol]", "TNF α Inhibition": "A (A = >80% inh.)"}, {"smiles": "FC(F)(F)C1(c2ccc(-c3nc4ccccc4[nH]3)cc2)CC1", "note": "[Example 59, 2-[4-[1-(Trifluoromethyl)-cyclopropyl]phenyl]-1H-benzo[d]imidazole]", "TNF α Inhibition": "C (C = <50% inh.)"}, {"smiles": "CC(C)(C)c1ccc(-c2nc3cc(C#N)ccc3[nH]2)cc1", "note": "[Example 31, 2-(4-tert-Butylphenyl)-1H-benzo[d]imidazole-5-carbonitrile]", "TNF α Inhibition": "A (A = >80% inh.)"}, {"smiles": "Brc1ccccc1-c1nc2ccccc2[nH]1", "note": "[Example 23, 2-(2-Bromophenyl)-1H-benzo[d]imidazole]", "TNF α Inhibition": "B (B = 50-80% inh.)"}, {"smiles": "CC(C)c1ccc(-c2nc3ccccc3[nH]2)cc1", "note": "[Example 33, 2-(4-Isopropylphenyl)-1H-benzo[d]imidazole]", "TNF α Inhibition": "C (C = <50% inh.)"}, {"smiles": "CC(C)(C)c1ccc(-c2nc3ncccc3[nH]2)cc1", "note": "[Example 35, 2-(4-tert-Butylphenyl)-1H-imidazo[4,5-b]pyridine]", "TNF α Inhibition": "C (C = <50% inh.)"}, {"smiles": "Brc1cccc(-c2nc3ccccc3[nH]2)c1", "note": "[Example 19, 2-(3-Bromophenyl)-1H-benzo[d]imidazole]", "TNF α Inhibition": "C (C = <50% inh.)"}, {"smiles": "CC(C)(C)c1ccc(-c2nc3cc(F)ccc3[nH]2)cc1", "note": "[Example 41, 2-(4-tert-Butylphenyl)-5-fluoro-1H-benzo[d]imidazole]", "TNF α Inhibition": "C (C = <50% inh.)"}, {"smiles": "CC(C)(C)c1ccc(-c2nc3c(F)cccc3[nH]2)cc1", "note": "[Example 49, 2-(4-tert-Butylphenyl)-4-fluoro-1H-benzo[d]imidazole]", "TNF α Inhibition": "A (A = >80% inh.)"}, {"smiles": "FC(F)(F)c1ccc(-c2nc3ccccc3[nH]2)cc1", "note": "[Example 15, 2-(4-Trifluoro-methylphenyl)-1H-benzo[d]imidazole]", "TNF α Inhibition": "C (C = <50% inh.)"}, {"smiles": "CC(C)(C)c1ccc(-c2nc3c(N)cccc3[nH]2)cc1", "note": "[Example 62, 2-(4-tert-Butylphenyl)-1H-benzo[d]imidazol-4-amine]", "TNF α Inhibition": "A (A = >80% inh.)"}, {"smiles": "c1ccc(Oc2ccc(-c3nc4ccccc4[nH]3)cc2)cc1", "note": "[Example 72, 2-(4-Phenoxyphenyl)-1H-benzo[d]imidazole]", "TNF α Inhibition": "C (C = <50% inh.)"}, {"smiles": "Cc1ccccc1-c1nc2ccccc2[nH]1", "note": "[Example 12, 2-(2-Methylphenyl)-1H-benzo[d]imidazole]", "TNF α Inhibition": "C (C = <50% inh.)"}, {"smiles": "COc1cccc2[nH]c(-c3ccc(C(C)(C)C)cc3)nc12", "note": "[Example 51, 2-(4-tert-Butylphenyl)-4-methoxy-1H-benzo[d]imidazole]", "TNF α Inhibition": "A (A = >80% inh.)"}, {"smiles": "COc1ccc2[nH]c(-c3ccc(C(C)(C)C)cc3)nc2c1", "note": "[Example 29, 2-(4-tert-Butylphenyl)-5-methoxy-1H-benzo[d]imidazole]", "TNF α Inhibition": "A (A = >80% inh.)"}, {"smiles": "COc1cccc(-c2nc3ccccc3[nH]2)c1", "note": "[Example 20, 2-(3-Methoxy-phenyl)-1H-benzo[d]imidazole]", "TNF α Inhibition": "C (C = <50% inh.)"}, {"smiles": "Clc1cccc(-c2nc3ccccc3[nH]2)c1", "note": "[Example 27, 2-(3-Chlorophenyl)-1H-benzo[d]imidazole]", "TNF α Inhibition": "C (C = <50% inh.)"}, {"smiles": "CC(C)(C)c1ccc(-c2nc3cc(F)c(F)cc3[nH]2)cc1", "note": "[Example 52, 2-(4-tert-Butylphenyl)-5,6-difluoro-1H-benzo[d]imidazole]", "TNF α Inhibition": "C (C = <50% inh.)"}, {"smiles": "Oc1ccccc1-c1nc2ccccc2[nH]1", "note": "[Example 16, 2-(2-Hydroxy-phenyl)-1H-benzo[d]imidazole]", "TNF α Inhibition": "C (C = <50% inh.)"}, {"smiles": "CCCOc1ccc(-c2nc3ccccc3[nH]2)cc1", "note": "[Example 68, 2-(4-Propoxyphenyl)-1H-benzo[d]imidazole]", "TNF α Inhibition": "C (C = <50% inh.)"}, {"smiles": "Clc1ccccc1-c1nc2ccccc2[nH]1", "note": "[Example 7, 2-(2-Chlorophenyl)-1H-benzo[d]imidazole]", "TNF α Inhibition": "C (C = <50% inh.)"}, {"smiles": "FC(F)(F)Oc1ccc(-c2nc3ccccc3[nH]2)cc1", "note": "[Example 66, 2-(4-Trifluoromethoxyphenyl)-1H-benzo[d]imidazole]", "TNF α Inhibition": "C (C = <50% inh.)"}, {"smiles": "CC(C)(C)c1ccc(-c2nc3c(Cl)cccc3[nH]2)cc1", "note": "[Example 46, 2-(4-tert-Butylphenyl)-4-chloro-1H-benzo[d]imidazole]", "TNF α Inhibition": "A (A = >80% inh.)"}, {"smiles": "Fc1cccc(-c2nc3ccccc3[nH]2)c1", "note": "[Example 36, 2-(3-Fluorophenyl)-1H-benzo[d]imidazole]", "TNF α Inhibition": "C (C = <50% inh.)"}, {"smiles": "CCOc1ccc(-c2nc3ccccc3[nH]2)cc1", "note": "[Example 67, 2-(4-Ethoxyphenyl)-1H-benzo[d]imidazole]", "TNF α Inhibition": "C (C = <50% inh.)"}, {"smiles": "CC(C)(C)c1ccc(-c2nc3cnccc3[nH]2)cn1", "note": "[Example 13, 2-(6-tert-Butyl-3-pyridyl)-1H-imidazo[4,5-c]-pyridine]", "TNF α Inhibition": "B (B = 50-80% inh.)"}, {"smiles": "c1ccc(-c2ccc(-c3nc4ccccc4[nH]3)cc2)cc1", "note": "[Example 65, 2-(4-Biphenyl)-1H-benzo[d]imidazole]", "TNF α Inhibition": "C (C = <50% inh.)"}, {"smiles": "Cc1ccc(-c2nc3ccccc3[nH]2)cc1", "note": "[Example 11, 2-(4-Methylphenyl)-1H-benzo[d]imidazole]", "TNF α Inhibition": "A (A = >80% inh.)"}, {"smiles": "COc1ccccc1-c1nc2ccccc2[nH]1", "note": "[Example 25, 2-(2-Methoxy-phenyl)-1H-benzo[d]imidazole]", "TNF α Inhibition": "C (C = <50% inh.)"}, {"smiles": "CC(C)(C)c1ccc(-c2nc3c(C(N)=O)cccc3[nH]2)cc1", "note": "[Example 74, 2-(4-tert-Butylphenyl)-1H-benzo[d]imidazol-4-carboxamide]", "TNF α Inhibition": "A (A = >80% inh.)"}, {"smiles": "CC(C)(C)c1ccc(-c2nc3cc(Br)ccc3[nH]2)cc1", "note": "[Example 43, 2-(4-tert-Butylphenyl)-5-bromo-1H-benzo[d]imidazole]", "TNF α Inhibition": "A (A = >80% inh.)"}, {"smiles": "Nc1cccc(-c2nc3ccccc3[nH]2)c1", "note": "[Example 47, 2-(3-Aminophenyl)-1H-benzo[d]imidazole]", "TNF α Inhibition": "C (C = <50% inh.)"}, {"smiles": "CC(C)(C)c1ccc(-c2nc3ccccc3s2)cc1", "note": "[Example 3, 2-(4-tert-Butylphenyl)-1,3-benzothiazole]", "TNF α Inhibition": "C (C = <50% inh.)"}, {"smiles": "Oc1cccc(-c2nc3ccccc3[nH]2)c1", "note": "[Example 40, 2-(3-Hydroxyphenyl)-1H-benzo[d]imidazole]", "TNF α Inhibition": "C (C = <50% inh.)"}, {"smiles": "FC(F)(F)c1ccccc1-c1nc2ccccc2[nH]1", "note": "[Example 22, 2-(2-Trifluoro-methylphenyl)-1H-benzo[d]imidazole]", "TNF α Inhibition": "C (C = <50% inh.)"}, {"smiles": "Clc1ccc(-c2nc3ccccc3[nH]2)cc1", "note": "[Example 8, 2-(4-Chlorophenyl)-1H-benzo[d]imidazole]", "TNF α Inhibition": "C (C = <50% inh.)"}, {"smiles": "CC(C)(C)Oc1ccc(-c2nc3ccccc3[nH]2)cc1", "note": "[Example 71, 2-(4-tert-Butoxyphenyl)-1H-benzo[d]imidazole]", "TNF α Inhibition": "B (B = 50-80% inh.)"}, {"smiles": "Fc1ccc(-c2nc3ccccc3[nH]2)cc1", "note": "[Example 34, 2-(4-Fluorophenyl)-1H-benzo[d]imidazole]", "TNF α Inhibition": "C (C = <50% inh.)"}, {"smiles": "FC(F)Oc1ccc(-c2nc3ccccc3[nH]2)cc1", "note": "[Example 70, 2-(4-(Difluoromethoxy)phenyl)-1H-benzo[d]imidazole]", "TNF α Inhibition": "B (B = 50-80% inh.)"}, {"smiles": "Cc1cccc2[nH]c(-c3ccc(C(C)(C)C)cc3)nc12", "note": "[Example 45, 2-(4-tert-Butylphenyl)-4-methyl-1H-benzo[d]imidazole]", "TNF α Inhibition": "A (A = >80% inh.)"}, {"smiles": "CCc1ccc(-c2nc3ccccc3[nH]2)cc1", "note": "[Example 28, 2-(4-Ethylphenyl)-1H-benzo[d]imidazole]", "TNF α Inhibition": "C (C = <50% inh.)"}, {"smiles": "Nc1ccccc1-c1nc2ccccc2[nH]1", "note": "[Example 48, 2-(2-Aminophenyl)-1H-benzo[d]imidazole]", "TNF α Inhibition": "C (C = <50% inh.)"}]}]}
